US9815878B2, “Use of PEDF-derived polypeptides for preventing and/or ameliorating skin aging” (MacKay Memorial Hospital, priority 2012, dated 2017)

Tests used:
[1] = tested on: dermal fibroblasts; assay: Dermal fibroblast proliferation in photo damaged (UVB irradiated) skin in vivo, BrdU/vimentin staining; set-up: species or system nude mice (BALB/cAnN.Cg-Foxn1nu/CrlNarl); settings: for BrdU/Vimentin Labeling Index (%): after 8-week UVB, ointment plus microneedle twice a week for 2 weeks
Protocol: For animal study, BrdU was reconstituted in DMSO as stock (80 mM). 10 μl of BrdU stock mixed with 90 μl of PBS was intraperitoneally injected into mouse at 16 hours prior to euthanasia. Formalin-fixed, paraffin-embedded skin specimens were deparaffinized in xylene and rehydrated in a graded series of ethanol. The specimens were then exposed to 1 N HCl at room temperature for 1 hour for subsequent immunofluorescence study.
BrdU-labeled DNA was detected by polyclonal anti-BrdU antibody and rhodamine-conjugated donkey anti-rabbit IgG. Nuclei were counterstained with Hoechst 33258 (blue).
(§1) Six-week-old female nude mice (BALB/cAnN.Cg-Foxn1nu/CrlNarl) were irradiated with ultraviolet B (UVB) on the back 5 times a week for an eight-week period using a bank of five UVB lamps (model XL-1000B, Spectrolinker™ apparatus; emission peak: 312 nm), placed about 20 cm above the backs of the animals. During the UVB exposure, the mice were allowed to move freely within the cage. The irradiation intensity represented as the minimal erythe al dose (MED) was set at 1 MED during the first 2 weeks (60 mJ/cm^2), and was progressively elevated to 2 MED (120 mJ/cm^2) in the 3rd-4th week, to 3 MED (180 mJ/cm^2) in the 5th-6th week, and to 4 MED (240 mJ/cm^2) during the 7th-8th weeks of the experiment. After the 8-week UVB exposure, animals developed noticeable wrinkles and were subsequently randomly divided into the following 4 groups, with 3 mice in each group. In the UVB/vehicle, UVB/29-mer, UVB/20-mer, and UVB/18-mer groups, 350 μl of ointment (containing DMSO, 29-mer, 20-mer or 18-mer PEDF) was applied to the dorsal skin and then transdermal delivery was achieved by punching the ointment treated skin with the microneedle patch. Also, mice that were not subjected to UVB radiation were used as control (Normal). The ointment/microneedle treatment was given twice a week for 2 weeks. Mice were intraperitoneally given BrdU and euthanized at 16 hours after the last treatment. Skin sections were stained for vimentin and BrdU. The level of BrdU- and vimentin-double positive cells was expressed as the percentage of BrdU- and vimentin-double positive cells per total vimentin-positive cells (the BrdU/Vimentin Labeling Index).

[2] = tested on: type I collagen (COL1A1); assay: COL1A1 level in UVB-damaged mouse skin by immunoblot; assay type: in vivo, nude mice; settings: 8-week UVB, then ointment plus microneedle for 2 weeks; untreated normal group set to 100%
Protocol: Skin tissues were homogenized in ice-cold lysis buffer containing 20 mM HEPES (pH 7.4), 150 mM NaCl, 1% SDS, 1 mM ethylenediamine tetraacetic acid (EDTA), 5 mM phenylmethanesulfonyl fluoride (PMSF), and 1 mM dithiothreitol (DTT), 1% Triton X-100, with freshly added protease inhibitor cocktail (Roche, Indianapolis, Ind.). Homogenates were then centrifuged at 12,000 g for 30 minutes at 4° C., and supernatants were then collected and stored at −70° C. Protein contents in lysates were determined using the Bradford assay. Whole cell lysates were prepared using the above lysis buffer. Aliquots of the lysates were then resolved on a SDS-PAGE and then electrotransferred to polyvinylidene difluoride (PVDF) membranes (Millipore, Bedford, Mass., USA) and processed for immunoblot analysis.
Antibodies used in the immunoblot study included anti-type I collagen 1A1 antibody (1:1000 dilution), anti-MMP-1 antibody (1:500 dilution) and anti-β-actin antibody (1:10000 dilution). Proteins of interest were detected using the appropriate IgG-HRP secondary antibody and ECL reagent (Amersham, Arlington Heights, Ill., USA). X-ray films were scanned on a Model GS-700 Imaging Densitometer (Bio-Rad Laboratories, Hercules, Calif.) and analyzed using Labworks 4.0 software. For quantification, blots from at least three independent experiments were used.
Six-week-old female nude mice (BALB/cAnN.Cg-Foxn1nu/CrlNarl) were irradiated with ultraviolet B (UVB) on the back 5 times a week for an eight-week period using a bank of five UVB lamps (model XL-1000B, Spectrolinker™ apparatus; emission peak: 312 nm), placed about 20 cm above the backs of the animals. During the UVB exposure, the mice were allowed to move freely within the cage. […] The level of BrdU- and vimentin-double positive cells was expressed as the percentage of BrdU- and vimentin-double positive cells per total vimentin-positive cells (the BrdU/Vimentin Labeling Index). […]

[3] = tested on: UVB-induced wrinkles; assay: UVB-induced wrinkles in nude mice, appearance photographed; assay type: in vivo; settings: 8-week UVB, then ointment plus microneedle twice a week for 2 weeks; FIG. 4
From the text: as §1
Formation of wrinkles is closely related to repetitive exposure to UVB irradiation. […] In this working example, we investigated the anti-wrinkle effect of present PEDF peptides in nude (i.e, hairless) mice. Wrinkles were induced by an eight-week UVB irradiation according to the procedure set forth in Example 3.3 above. […]

[4] = tested on: dermal collagen; assay: Dermal collagen content, Masson's trichrome stained collagen area in depilated mouse skin; assay type: in vivo, C57BL/6 mice; settings: for Collagen Area (fold): ointment plus microneedle (MN), twice a week for two weeks, day 14, normalized with Vehicle/MN; for collagen level (Masson's trichrome sections) versus vehicle/CT: ointment without microneedle treatment (CT)
Protocol: General histology was performed using hematoxylin and eosin (H&E) dye. Deparaffinized skin tissue sections were stained using Masson's Trichrome (Sigma-Aldrich, St. Louis, Mo.) according to the manufacturer's instructions; sections was examined and photographed by a Nikon Eclipse 80i light microscope (original magnification, ×400). For semi-quantitative analysis of collagen area, 10 fields from each slide were randomly selected under the light microscope, and the blue-stained area per entire area of the cross section (mm^2/mm^2) was measured using the Image-Pro Plus 4.5.1 system (Media Cybernetics).
Collagen is the major matrix component of the dermis and forms a tough fiber framework to provide the elastic property of the skin. This working example investigated whether the present PEDF peptides increase dermal collage content. Mice depilated as described in Example 1 were randomly assigned to several experimental groups and treated as follows. For each mouse, one side of the dorsal midline (about 2 cm^2) received 50 μl of ointment (the 29-mer, 20-mer, or DMSO-containing ointment) and a subsequent microneedle treatment; while the other side of the dorsal midline (about 2 cm^2) received 50 μl of the same ointment without the microneedle treatment. The treatment was given twice a week for two weeks, and the skin was left uncovered and harvested 14 days after the first treatment. Skin specimens were stained with Masson's trichrome stain (blue) for dermal collagen; representative images are provided in FIG. 2. The stained collagen area in the skin was quantified as taught above in the “Materials and Methods” section, and the results were normalized with the area of Vehicle/MN. The level of type I collagen (COL1A1) was investigated by the above-described immunoblot analysis, and the results were normalized with the level of the vehicle/CT group.

[5] = after UVB exposure, transdermal delivery

Row | Substance | BrdU/Vimentin Labeling Index (%) [1] | proliferative activity of dermal fibroblasts relative to UVB/vehicle group [1, 5] | COL1A1 Level (%) [2] | wrinkle appearance after 2-week treatment [3] | Collagen Area (fold) [4] | collagen level (Masson's trichrome sections) versus vehicle/CT [4] | effect on dermal fibroblast proliferation in UVB-damaged skin [1, 5]
1 | Ac-SLGAEQRTESIIHRALYYDLISSPDIHGT-NH2 [29-mer] | 5.2 ± 1.9 % | about 2.5 fold | 91.0 ± 5.0 % | wrinkle lines were fewer and finer | 1.7 ± 0.14 fold | no significant difference | –
2 | EQRTESIIHRALYYDLIS [18-mer] | 2.0 ± 0.8% | – | 45.0 ± 3.8% | not capable of reducing the wrinkles | – | – | failed to promote the dermal fibroblast proliferation
3 | SLGAEQRTESIIHRALYYDL [20-mer, synthetic peptide corresponding to residues 93-112 of human PEDF] | 5.9 ± 1.3 % | about 2.5 fold | 92.3 ± 9.1 % | wrinkle lines were fewer and finer | 1.6 ± 0.11 fold | no significant difference | –
